Values joined by “and” are separate entries in the source; they are usually repeats but may differ in a detail not shown here. Equal entries are not always repeated.
System: 3T3-L1 adipocytes
Test: [3H]-2-deoxy-glucose uptake by adipocytes
Type: cell-based, Murine
Method: To determine if one mechanism for glyceollins to improve the oral glucose challenge in a prediabetic model is by increasing the glucose uptake by fat, glyceollin pharmacology was studied in 3T3-L1 cells. Murine preadipocytes (Zen-Bio Inc.) were cultured using PM-1-L1 medium (Zen-Bio Inc.) containing Dulbecco's modified Eagle's medium (DMEM)/Ham's F-10 medium (1:1, v/v), HEPES 15 mM (pH 7.4), 10% (v/v) fetal bovine serum, penicillin (100 U/ml), streptomvcin ([…]), and amphotericin B (0.25 μg/ml) in a humidified atmosphere (5% CO2/95% air). After 3-4 days, confluent cells were placed in differentiation medium (DM-2-L1, Zen-Bio Inc.) containing DMEM/Ham's F-10 medium (1:1, v/v), HEPES 15 mM (pH 7.4), 3% (v/v) fetal bovine serum, biotin ([…]), pantothenate (17 μM), human insulin (100 nM), dexamethasone (1 μM), penicillin (100 U/ml), streptomycin (100 μg/ml), amphotericin B (0.25 μg/ml), isobutylmethylxanthine ([…]) and PPARγ agonist (10 μM) and further incubated in the humidified atmosphere for 3 days. […]
Adipocytes were rinsed in sterile, fresh KRH buffer (HEPES pH=7.4, 1 mM CaCl2, 1.2 mM MgSO4, 1 mM KH2PO4, 1.4 mM KCl, […], 130 mM NaCl), and then preincubated for 24 h in KRH buffer. […] The vials were mixed and counted for 10 min in an Applied Biosystems 1100 liquid scintillation counter using the factory preset window to detect tritium.

insulin
maximal stimulation relative to basal glucose uptake (0.3 nM-300 nM insulin): about 3 times
EC50 (insulin 30 min at 37° C., then 10 min [3H]-2-deoxy-glucose, read-out: EC50 of insulin-mediated glucose uptake): 1.9 nM and 1.92 nM
